Values of other authors in US20050042280A1, “Aqueous based pharmaceutical formulations of water-soluble prodrugs of propofol” (priority 2001, published 2005).

Conditions: anesthetic induction doses, Bryson et al., Drugs 50 (1995) at 520

In the case of `CC(C)c1cccc(C(C)C)c1O` [propofol, 2,6-diisopropylphenol], the “patients with respiratory consequences, including a reduction in tidal volume and apnea” value is listed as “up to 83%”.
